Measured values published in US20060009478A1, “Methods for the treatment of back pain” (priority 2003, published 2006).

Test system: patients with moderate to severe chronic low back pain
Test: Pain intensity (daily diary, 11-point numerical scale), low back pain study with titration and 12-week fixed-dose period
Type: in vivo, human
Conditions: LOCF, ITT
Protocol: A multicenter, randomized, double-blind, active- and placebo-controlled study was designed and conducted.
In addition, adverse events and opioid-related adverse events were to be recorded in the daily diary.
For the pain intensity (PI) scale assessment, the patient was prompted with the question “How would you rate your overall pain intensity at this time?” and the PI score was recorded in the clinic at the Screening and Baseline Visits. Pain intensity was also assessed by prompting the patient with the questions “How would you rate your overall pain intensity during the past 24 hours?” and a daily PI diary score was recorded at bedtime. For both Pain Intensity prompts, the response was scored on an 11-point numerical scale (0=no pain and 10=severe pain).
The baseline average daily pain intensity score for each patient was calculated as the average of the daily bedtime pain intensity scores recorded during the 3 days immediately prior to baseline/start of titration period visit. The post-baseline average daily pain intensity scores were calculated as the average of the daily bedtime pain intensity scores recorded during the last 3 days of dosing prior to each visit. Missing data was imputed using the last-observation-carried-forward (LOCF) approach for efficacy variables in the fixed-dose period. If the first visit in the fixed-dose period was missing, the last value in the titration period was imputed forward. Unless indicated, all testing of statistical significance was two-sided, and a difference resulting in a p-value of equal to or less than 0.05 was considered statistically significant.
A primary efficacy endpoint was the percent change from baseline to the end of the fixed-dose period (Week 12) in average daily pain intensity. The percent change from baseline was calculated as [PI(baseline)−PI(fixed-dose)]/PI(baseline)*100. Data was summarized descriptively by treatment group. An analysis of covariance (ANCOVA) model including treatment and center as effects and baseline pain intensity as the covariate was used for global and pairwise inferences. Separate models were used to evaluate both the treatment by center and treatment by baseline pain intensity interaction terms.
A primary comparison of interest was oxycodone and naltrexone (e.g., BID or QID) versus oxycodone (e.g., QID). Secondary analyses included actual and percent change from baseline values of daily pain index, SF-12, and Oswestry disability index summarized descriptively by treatment group for both the titration and fixed-dose periods. Treatments were compared globally and in pairwise fashion at each visit in the fixed-dose period using an ANCOVA model that included treatment and center as effects and baseline pain intensity as the covariate. Separate models were used to evaluate both the treatment by center and treatment by baseline pain intensity interaction terms.

COc1ccc2c3c1O[C@H]1C(=O)CC[C@@]4(O)[C@@H](C2)N(C)CC[C@]314 [OXY QID, oxycodone]
Pain intensity actual value at fixed dose week 7, maximum (fixed dose week 7): 10.0 | Pain intensity actual value at fixed dose week 7, mean (SD) (fixed dose week 7): 4.0 (2.54) | Pain intensity actual value at fixed dose week 7, median (fixed dose week 7): 3.3 | Pain intensity actual value at fixed dose week 7, minimum (fixed dose week 7): 0.0 | Pain intensity change from baseline to fixed dose week 7, maximum (fixed dose week 7): 3.0 | Pain intensity change from baseline to fixed dose week 7, mean (SD) (fixed dose week 7): −3.6 (2.69) | Pain intensity change from baseline to fixed dose week 7, median (fixed dose week 7): −4.0 | Pain intensity change from baseline to fixed dose week 7, minimum (fixed dose week 7): −9.7 | Pain intensity percent change from baseline to fixed dose week 7, maximum (fixed dose week 7): 42.9% | Pain intensity percent change from baseline to fixed dose week 7, mean (SD) (fixed dose week 7): −46.8 (34.05) % | Pain intensity percent change from baseline to fixed dose week 7, median (fixed dose week 7): −52.9% | Pain intensity percent change from baseline to fixed dose week 7, minimum (fixed dose week 7): −100.0% | Pain intensity actual value at fixed dose week 8, maximum (fixed dose week 8): 10.0 | Pain intensity actual value at fixed dose week 8, mean (SD) (fixed dose week 8): 4.0 (2.57) | Pain intensity actual value at fixed dose week 8, median (fixed dose week 8): 3.3 | Pain intensity actual value at fixed dose week 8, minimum (fixed dose week 8): 0.0 | Pain intensity change from baseline to fixed dose week 8, maximum (fixed dose week 8): 3.0 | Pain intensity change from baseline to fixed dose week 8, mean (SD) (fixed dose week 8): −3.6 (2.67) | Pain intensity change from baseline to fixed dose week 8, median (fixed dose week 8): −3.7 | Pain intensity change from baseline to fixed dose week 8, minimum (fixed dose week 8): −9.7 | Pain intensity percent change from baseline to fixed dose week 8, maximum (fixed dose week 8): 42.9% | Pain intensity percent change from baseline to fixed dose week 8, mean (SD) (fixed dose week 8): −46.5 (34.05) % | Pain intensity percent change from baseline to fixed dose week 8, median (fixed dose week 8): −52.4% | Pain intensity percent change from baseline to fixed dose week 8, minimum (fixed dose week 8): −100.0% | Pain intensity actual value at fixed dose week 9, maximum (fixed dose week 9): 10.0 | Pain intensity actual value at fixed dose week 9, mean (SD) (fixed dose week 9): 3.9 (2.57) | Pain intensity actual value at fixed dose week 9, median (fixed dose week 9): 3.3 | Pain intensity actual value at fixed dose week 9, minimum (fixed dose week 9): 0.0 | Pain intensity change from baseline to fixed dose week 9, maximum (fixed dose week 9): 3.0 | Pain intensity change from baseline to fixed dose week 9, mean (SD) (fixed dose week 9): −3.6 (2.70) | Pain intensity change from baseline to fixed dose week 9, median (fixed dose week 9): −4.0 | Pain intensity change from baseline to fixed dose week 9, minimum (fixed dose week 9): −9.7 | Pain intensity percent change from baseline to fixed dose week 9, maximum (fixed dose week 9): 42.9% | Pain intensity percent change from baseline to fixed dose week 9, mean (SD) (fixed dose week 9): −47.4 (34.17) % | Pain intensity percent change from baseline to fixed dose week 9, median (fixed dose week 9): −53.3% | Pain intensity percent change from baseline to fixed dose week 9, minimum (fixed dose week 9): −100.0% | Pain intensity actual value at fixed dose week 10, maximum (fixed dose week 10): 10.0 | Pain intensity actual value at fixed dose week 10, mean (SD) (fixed dose week 10): 4.0 (2.54) | Pain intensity actual value at fixed dose week 10, median (fixed dose week 10): 3.7 | Pain intensity actual value at fixed dose week 10, minimum (fixed dose week 10): 0.0 | Pain intensity change from baseline to fixed dose week 10, maximum (fixed dose week 10): 3.0 | Pain intensity change from baseline to fixed dose week 10, mean (SD) (fixed dose week 10): −3.6 (2.66) | Pain intensity change from baseline to fixed dose week 10, median (fixed dose week 10): −3.7 | Pain intensity change from baseline to fixed dose week 10, minimum (fixed dose week 10): −9.7 | Pain intensity percent change from baseline to fixed dose week 10, maximum (fixed dose week 10): 42.9% | Pain intensity percent change from baseline to fixed dose week 10, mean (SD) (fixed dose week 10): −46.8 (33.72) % | Pain intensity percent change from baseline to fixed dose week 10, median (fixed dose week 10): −52.0% | Pain intensity percent change from baseline to fixed dose week 10, minimum (fixed dose week 10): −100.0% | Pain intensity actual value at fixed dose week 11, maximum (fixed dose week 11): 10.0 | Pain intensity actual value at fixed dose week 11, mean (SD) (fixed dose week 11): 3.9 (2.57) | Pain intensity actual value at fixed dose week 11, median (fixed dose week 11): 3.3 | Pain intensity actual value at fixed dose week 11, minimum (fixed dose week 11): 0.0 | Pain intensity change from baseline to fixed dose week 11, maximum (fixed dose week 11): 3.0 | Pain intensity change from baseline to fixed dose week 11, mean (SD) (fixed dose week 11): −3.7 (2.70) | Pain intensity change from baseline to fixed dose week 11, median (fixed dose week 11): −4.0 | Pain intensity change from baseline to fixed dose week 11, minimum (fixed dose week 11): −9.7 | Pain intensity percent change from baseline to fixed dose week 11, maximum (fixed dose week 11): 42.9% | Pain intensity percent change from baseline to fixed dose week 11, mean (SD) (fixed dose week 11): −48.2 (34.19) % | Pain intensity percent change from baseline to fixed dose week 11, median (fixed dose week 11): −55.6% | Pain intensity percent change from baseline to fixed dose week 11, minimum (fixed dose week 11): −100.0% | Pain intensity actual value at fixed dose week 12, maximum (fixed dose week 12): 10.0 | Pain intensity actual value at fixed dose week 12, mean (SD) (fixed dose week 12): 4.0 (2.53) | Pain intensity actual value at fixed dose week 12, median (fixed dose week 12): 3.7 | Pain intensity actual value at fixed dose week 12, minimum (fixed dose week 12): 0.0 | Pain intensity change from baseline to fixed dose week 12, maximum (fixed dose week 12): 3.0 | Pain intensity change from baseline to fixed dose week 12, mean (SD) (fixed dose week 12): −3.5 (2.65) | Pain intensity change from baseline to fixed dose week 12, median (fixed dose week 12): −3.7 | Pain intensity change from baseline to fixed dose week 12, minimum (fixed dose week 12): −9.7 | Pain intensity percent change from baseline to fixed dose week 12, maximum (fixed dose week 12): 42.9% | Pain intensity percent change from baseline to fixed dose week 12, mean (SD) (fixed dose week 12): −46.2 (33.60) % | Pain intensity percent change from baseline to fixed dose week 12, median (fixed dose week 12): −52.0% | Pain intensity percent change from baseline to fixed dose week 12, minimum (fixed dose week 12): −100.0%
